We go through 21 compounds from PubChem BioAssay AID624367 (Broad Institute, 2012).

Calls of active or inactive are those of the source. No rule for the calls is given here.

The first assay is described as follows: viability loss in LCL cells – cell-based, plate reader, dry powder, set 2, cytotoxicity control, dose response (AID 624367). The conditions noted are these: Lymphoblastoid cell line (LCL) cytotoxicity, plate reader; at 16 µM (top of the series).
Take `C[C@@H]1CN([C@H](C)CO)C(=O)Cc2cc(NC(=O)Cc3ccccc3)ccc2O[C@@H]1CN(C)Cc1ccc(C(F)(F)F)cc1`: the activity change, negative = cytotoxicity was 4.6% (inactive).

The same assay, now with this note: Lymphoblastoid cell line (LCL) cytotoxicity, plate reader; at 35 µM (top of the series).
With `COc1ccccc1C#Cc1cnc2c(c1)C(=O)N([C@H](C)CO)C[C@H](C)[C@@H](CN(C)C(=O)c1ccc3c(c1)OCO3)O2`, the activity change, negative = cytotoxicity was 8.25% (inactive).

Regarding `C[C@H](CO)N1C[C@H](C)[C@H](CN(C)Cc2ccc(C(F)(F)F)cc2)Oc2ccc(NC(=O)Cc3ccccc3)cc2CC1=O`, the activity change, negative = cytotoxicity is 3.51% (inactive).

On to `CN(C)C(=O)c1ccc(-c2cccc(-c3nc(C(=O)NCc4ccccc4)cc4c3[C@@H](CCO)N([S@](=O)C(C)(C)C)C4)c2)cc1`, for which the activity change, negative = cytotoxicity was -1.5% (inactive).

As to `O=C(C[C@@H]1C[C@H]2c3cc(NS(=O)(=O)c4ccc(F)cc4)ccc3O[C@H]2[C@H](CO)O1)NCc1ccc(Oc2ccccc2)cc1`, the activity change, negative = cytotoxicity is -1.34% (inactive).

As for `CN1C(=O)c2cc(NC(=O)c3ccc(C(F)(F)F)cc3)ccc2OC[C@@H]2O[C@@H](CC(=O)NC3Cc4ccccc4C3)CC[C@H]21`, the activity change, negative = cytotoxicity was -7.43% (inactive).

As to `O=C(C[C@H]1C[C@@H]2c3cc(NC(=O)c4ccc5c(c4)OCO5)ccc3O[C@@H]2[C@@H](CO)O1)NCc1ccc(Oc2ccccc2)cc1`, the activity change, negative = cytotoxicity was -5.15% (inactive).

Regarding `Cc1ccc(S(=O)(=O)N(C)C[C@H]2Oc3cc(C#Cc4ccncc4)ccc3S(=O)(=O)N([C@@H](C)CO)C[C@H]2C)cc1`, the activity change, negative = cytotoxicity is -6.9% (inactive).

Take `COC(=O)C[C@H]1C[C@H]2c3cc(NC(=O)CN(C)C)ccc3O[C@H]2[C@H](CO)O1`: the activity change, negative = cytotoxicity is 3.27% (inactive).

As to `O=C(Cc1ccccn1)NCC[C@@H]1CC[C@H](NC(=O)Nc2ccc(Cl)cc2)[C@H](CO)O1`, the activity change, negative = cytotoxicity was 7.74% (inactive).

In the case of `O=C(C[C@H]1C[C@@H]2c3cc(NS(=O)(=O)c4ccc(F)cc4)ccc3O[C@@H]2[C@H](CO)O1)NC1CCCCC1`, the activity change, negative = cytotoxicity is 0.09% (inactive).

`Cc1noc(C)c1S(=O)(=O)Nc1ccc2c(c1)C(=O)N([C@@H](C)CO)C[C@@H](C)[C@@H](CN(C)Cc1ccc(C(F)(F)F)cc1)OCCCC[C@@H](C)O2`: the activity change, negative = cytotoxicity was -5.16% (inactive).

On to `COc1cccc(C#Cc2ccc([C@@H]3[C@@H](C#N)N(C(=O)c4ccccn4)[C@@H]3CO)cc2)c1`, for which the activity change, negative = cytotoxicity was 7.55% (inactive).

`COc1ccccc1CNC(=O)C[C@@H]1C[C@H]2c3cc(NC(=O)c4ccc5c(c4)OCO5)ccc3O[C@H]2[C@H](CO)O1`: the activity change, negative = cytotoxicity is -4.54% (inactive).

For the compound `CC(C)(C)[S@@](=O)N1Cc2cc(C(=O)NCc3ccccc3F)nc(-c3cccc(-c4ccncc4)c3)c2[C@H]1CCO`, the activity change, negative = cytotoxicity is 0.812% (inactive).

As for `CS(=O)(=O)Nc1ccc2c(c1)[C@@H]1C[C@H](CC(=O)NCC3CC3)O[C@H](CO)[C@@H]1O2`, the activity change, negative = cytotoxicity was 1.53% (inactive).

`N#C[C@H]1N[C@H](CO)[C@H]1c1ccc(C#Cc2ccccc2F)cc1`: the activity change, negative = cytotoxicity is -8.35% (inactive).

As for `Cc1noc(C)c1S(=O)(=O)Nc1ccc2c(c1)C(=O)N([C@@H](C)CO)C[C@H](C)[C@@H](CN(C)Cc1ccc(C(F)(F)F)cc1)OCCCC[C@@H](C)O2`, the activity change, negative = cytotoxicity was -4.06% (inactive).

For the compound `O=C(C[C@@H]1CC[C@@H]2[C@H](COC[C@@H](O)CN2Cc2ccc(Oc3ccccc3)cc2)O1)N1CCc2ccccc2C1`, the activity change, negative = cytotoxicity is -13.2% (inactive).

Regarding `CCCNC(=O)c1cc2c(c(-c3cccc(-c4cccc(F)c4)c3)n1)[C@H](CCO)N([S@@](=O)C(C)(C)C)C2`, the activity change, negative = cytotoxicity is -1.43% (inactive).

With `O=C(Cc1ccccn1)NCC[C@@H]1CC[C@@H](NC(=O)Nc2ccc(Cl)cc2)[C@H](CO)O1`, the activity change, negative = cytotoxicity is -2.4% (inactive).
